Where two headings read alike, the source gives them in different places.
How the values were obtained:
AKT1 = AKT1 (Homo sapiens, UniProt P31749, S473D); assay: Determination of the IC50 for AKT1 (HTRF); format: biochemical; conditions: AKT1 without PH domain, activated by PDK1
Protocol: Determination of the IC50 for AKT1
The inhibitory potential of the compounds is evaluated by HTRF, a time-resolved fluorescence technique based on non-radiative energy transfer (FRET). […] This phosphorylation allows the kinase activity of AKT1 to be activated.
Starting with a 10 mM solution of inhibitors, 3 μl are taken and placed in a 96-well polypropylene plate containing 27 μl of 100% DMSO. The various test compounds are diluted in cascade by taking 15 μl of compound, to which are added 30 μl of 100% DMSO.
The various reaction components are added in the following manner:
Next, 10 μl of the inhibitor solution are added. Finally, the reaction is initiated by adding 10 μl of a solution containing both 100 μM of ATP and 10 μM of biotinylated peptide. The sequence of this peptide is as follows: biot-[…] (reference Neosystem SP000560). The plate is then covered with a plastic film, agitated and finally incubated at RT for 30 minutes. […] After incubation overnight at 4° C., the plate is read using an Ultra evolution spectrophotometer from Tecan. […] All the tests are performed in duplicate and the mean of the two tests is calculated.
For each point, a delta F is calculated in the following manner:
(§1) R(Ratio)=counts665 nm/counts620 nm
ΔF % is calculated by the Tecan Ultra Evolution machine.

[1] = target: T1, Human S6K1 (24-421) T412E protein (Homo sapiens, UniProt P23443, T412E); assay: Determination of the IC50 for S6K1 (HTRF substrate phosphorylation test); format: biochemical; conditions: S6K1 activated by PDK1, ATP 30 μM
T1 construct: Human S6K1 (24-421) T412E protein; made in house; host or cells: Sf21 insect cells
T1 sequence (P23443 24-421 T412E): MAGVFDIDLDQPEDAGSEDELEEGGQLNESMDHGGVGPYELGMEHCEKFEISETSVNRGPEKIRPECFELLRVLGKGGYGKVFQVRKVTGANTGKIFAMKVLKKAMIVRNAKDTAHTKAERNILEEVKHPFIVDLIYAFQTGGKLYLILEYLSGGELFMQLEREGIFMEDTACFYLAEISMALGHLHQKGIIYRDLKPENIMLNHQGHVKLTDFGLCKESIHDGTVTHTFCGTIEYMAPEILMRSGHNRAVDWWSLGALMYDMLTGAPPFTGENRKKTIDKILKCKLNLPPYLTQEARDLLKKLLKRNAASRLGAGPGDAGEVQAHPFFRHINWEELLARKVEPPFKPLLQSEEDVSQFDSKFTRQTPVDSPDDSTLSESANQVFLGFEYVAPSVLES
Protocol: Determination of the IC50 for S6K1
The inhibitory potential of the compounds for S6K1 is evaluated in an enzymatic test of phosphorylation of substrate in HTRF (Homogenous Time-Resolved Fluorescence) format. Human S6K1 (24-421) T412E protein is expressed in sf21 cells and purified by chromatography on a nickel chelate column. It is activated by PDK1.
The test comprises two steps, both performed at RT. The phosphorylation reaction takes place during the first step and the revelation step is performed during the second. […] The final concentrations of compounds thus obtained during the incubation period range from 10 μM to 0.17 nM and the concentration of enzyme is 2 nM. After incubation for 20 minutes, the reaction is stopped and the revelation initiated by addition of 30 μl of a mixture of streptavidin XL 665 Xlent, ref. 611SAXLB Cis bio international, and a europium cryptate-coupled anti-phospho-GSK3 antibody, ref. 64CUSKAZ Cis bio international, dissolved in the revelation buffer (HEPES/NaOH 166.7 mM, EDTA 221.7 mM, KF 667.7 mM, BSA 0.167%, pH 7.0). The reaction takes place in a black half-well plate ref. 3694 Costar.
A mixture of the reaction medium after each addition of reagent is obtained by agitation for a few minutes at 700-1000 rpm on a Heidolph Titramax 100 machine. The reading is taken on a TECAN Ultra Evolution machine after at least one night and up to 3 nights at 4° C. The reading settings are as follows: excitation wavelength 320 nm, emission wavelengths 620 and 665 nm, lag time 150 μs, integration time 500 μs.
For each point, the ΔF % is calculated as follows:
as §1
The IC50 values are calculated by means of the XLfit4 205 equation.

[2] = tested on: MIA PaCa-2 cells (human pancreatic carcinoma cells); assay: Proliferation of MIA PaCa-2 cells, intracellular ATP, CellTiter-Glo test; format: cell-based; conditions: 96 hours
Excerpt: (§2) b. Study of the Proliferation of Human Tumoral MIA PaCa-2, C-433, LnCaP and MCF7 Cells via Assay of the Intracellular ATP Using the Celltiter-Glo™ Test
(§3) The kit CellTiter-Glo™ for measuring cell viability via luminescence ([…]) is a homogeneous method for determining the number of viable cells in culture, based on quantification of the ATP present in the cells, and which indicates the presence of metabolically active cells.
(§4) The cell lines used in this test were the following: MIA PaCa-2 cells (human pancreatic carcinoma cells, ATCC, CRL-1420), C-433 cells (human Ewing sarcoma cells, DSMZ, ACC 268), LNCaP clone FGC cells (human prostate carcinoma cells, ATCC, CRL-1740), MCF7 cells (human breast carcinoma cells, ECACC, #86012803). The cells MIAPaCa-2 and LNCaP were cultured in D-MEM culture medium (Invitrogen Gibco, #419656-039) containing 10% foetal calf serum (FCS, Invitrogen Gibco, #10500-064) and 2 mM L-Glutamine (Invitrogen Gibco, #25030-024); the C-433 cells were cultured in MCCoy's 5A culture medium (Invitrogen Gibco, #26600-023)/RPMI 1640 (Invitrogen Gibco, #31870-025) (50/50) containing 10% FCS and 2 mM L-glutamine; the MCF7 cells were cultured in EMEM culture medium (EMEM, Biowhittaker, Lonza, #BE12-662F) containing 10% FCS and 2 mM L-Glutamine.
(§5) Evaluation of the Cell Viability via Luminescence Measurement: Celltiter-Glo™ Test
(§6) On day 1, the cells were inoculated at 1000 (C-433), 2500 (MCF7) and 10000 (LNCaP and MIA PaCa-2) cells per well in black-bottomed 96-well microplates (NUNC fluoronunc, Fisherbioblock 2311K) in 135 μl of whole culture medium and incubated at 37° C., 5% CO2, for 3 to 6 hours. The cells were then incubated with increasing concentrations of molecules diluted in dimethyl sulfoxide (DMSO, Sigma D2650). The molecules were added in a volume of 15 μl of a 10-fold concentrated solution in a final volume of 150 μl, the final percentage of DMSO being 0.1%. The cells were incubated at 37° C., 5% CO2, for 96 hours. After 4 days of treatment with the molecules, the CellTiter-Glo™ was performed by following the manufacturer's instructions (Kit Celltiter-Glo Luminescent, PROMEGA #G7571). Briefly, the cell plates were equilibrated for about 30 minutes at RT and 100 μl per well of Celltiter-Glo reagent were added. The cells were incubated for 1 hour at RT for lysis of the cells and stabilization of the signal. The intracellular ATP was quantified by measuring the luminescence in rlu units (relative luminescence units), 96 hours after initiation of the treatment, using a luminescence counter (Wallac). The tests were performed in six replicates.
(§7) i) the mean±s.e.m. of each series of well replicates was calculated;
(§8) ii) the maximum response is given by positive control wells containing untreated cells; this control was performed in 12 replicates;
(§9) iii) the minimum response is given by cell-free and untreated negative control wells; this control was performed in 6 replicates;
(§10) iv) using these maximum (100%) and minimum (0%) response values, respectively, the data were normalized to give a percentage relative to the maximum response;
(§11) The IC50 values were calculated by […] with the XLfit software (IDBS, UK) using formula 205.

[3] = tested on: MEF-IGF1 murine fibroblast cells; assay: IGF1-dependent proliferation of MEF-IGF1 cells via incorporation of [14C]-thymidine; format: cell-based; conditions: [14C]-thymidine incorporation, IGF1 stimulated, 72 hours, read-out: IC50 MEF-IGF
Excerpt: a. Study of the IGF1-Dependent Proliferation of MEF-IGF1 Murine Fibroblast Cells Measured via Incorporation of [14C]-Thymidine
This test is based on the incorporation of [^14C]-thymidine into the DNA of the cells for the S phase of the cell cycle during cell division. The cell line used in this test is the MEF/3T3 Tet-Off Clone 18 line obtained by stable transfection of the human receptor IGF1R in murine MEF/3T3 Tet-Off fibroblasts. To measure the IGF1-dependent cell proliferation, the cells were deprived of serum and cultured for 3 days in the serum-free culture medium in the presence of the growth factor IGF1 which stimulates the proliferation of MEF-IGF1 cells.
Test of Incorporation of [^14C]-Thymidine into MEF-IGF1 Cells
On day 1, the cells were inoculated with 7500 cells per well in Cytostar 96-well microplates (Amersham (GE) RPNQ0162) in 200 μl of EMEM medium (EMEM, Biowhittaker, #BE12-662F) containing 10% foetal calf serum (FCS, TET-BD Biosciences Tet System Approved FBS US-Sourced, #8630-1) and 1% PSG (Penicillin-Streptomycin-Glutamine (PSG), Gibco #10378-016), and incubated at 37° C., 5% CO2, for 24 hours. On day 2, the cells were washed in the FCS-free EMEM culture medium containing 1% PSG, and incubated in 170 μl of this serum-free culture medium at 37° C., 5% CO2, for 24 hours. On day 3, the cells were incubated with 10 μl of IGF1 (2 μg/ml of final concentration; recombinant human IGF-1, R & D Systems, #291-G1), 10 μl (0.1 μCi) of [^14C]-Thymidine (NEN NEC-568) plus 10 μl of increasing concentrations of the test molecules, diluted in dimethyl sulfoxide (DMSO, Sigma D2650). The molecules were added in a volume of 10 μl of a 20-fold concentrated solution in a final volume of 200 μl, the final percentage of DMSO being 0.1%. The treated cells were incubated at 37° C., 5% CO2, for 72 hours. The incorporation of [^14C]-Thymidine was quantified in cpm units (counts per minute) by counting the radioactivity 72 hours after the start of the treatment, using a Micro-Beta radioactivity counter (Perkin-Elmer). The tests were performed in duplicate.
as §7
ii) the background noise is calculated by preparing cell-free, IGF1-free and untreated control wells; this control was performed in 4 replicates. The background noise was removed at each measurement;
iii) the maximum response is given by positive control wells containing cells in the presence of IGF1 but untreated; this control was performed in 4 replicates;
iv) the minimum response is given by negative control wells containing IGF1-free and untreated cells; this control was performed in 4 replicates;
as §11

[4] = tested on: LNCaP clone FGC cells (human prostate carcinoma cells); assay: Proliferation of LNCaP cells, intracellular ATP, CellTiter-Glo test; format: cell-based; conditions: 96 hours
Excerpt: as §2, §3, §4, §5, §6, §7, §8, §9, §10, §11

[5] = tested on: C-433 cells (human Ewing sarcoma cells); assay: Proliferation of C-433 cells, intracellular ATP, CellTiter-Glo test; format: cell-based; conditions: 96 hours
Excerpt: as §2, §3, §4, §5, §6, §7, §8, §9, §10, §11

[6] = tested on: MCF7 cells (human breast carcinoma cells); assay: Proliferation of MCF7 cells, intracellular ATP, CellTiter-Glo test; format: cell-based; conditions: 96 hours
Excerpt: as §2, §3, §4, §5, §6, §7, §8, §9, §10, §11

Chain of AKT1 (P31749 118-480 S473D limits assumed): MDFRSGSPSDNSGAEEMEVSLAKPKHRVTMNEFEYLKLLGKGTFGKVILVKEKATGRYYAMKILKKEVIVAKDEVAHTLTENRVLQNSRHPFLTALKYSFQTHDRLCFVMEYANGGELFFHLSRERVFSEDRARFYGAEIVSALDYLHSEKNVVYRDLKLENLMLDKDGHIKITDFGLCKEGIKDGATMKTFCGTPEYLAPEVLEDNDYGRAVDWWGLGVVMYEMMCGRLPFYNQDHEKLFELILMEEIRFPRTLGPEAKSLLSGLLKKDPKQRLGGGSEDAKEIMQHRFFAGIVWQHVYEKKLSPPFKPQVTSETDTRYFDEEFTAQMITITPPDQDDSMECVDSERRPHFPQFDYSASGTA

Row | Compound | IC50 (AKT1) [nM] | IC50 [2] [µM] | also measured
1 | O=C(Nc1ccc2[nH]ncc2c1)N[C@H](c1ccc(Cl)c(Cl)c1)[C@H]1CCCCN1 [Ex 6, 1-{(R)-(3,4-Dichlorophenyl)[(2R)-piperid-2-yl]methyl}-3-(1H-indazol-5-yl)urea] | < 100 | 2.9 | IC50 [1]: 100 to 500 nM
2 | CN1CCCCC1C(NC(=O)Nc1ccc2[nH]nc(-c3ccccn3)c2c1)c1ccccc1 [Ex 15, 1-[(1-Methylpiperid-2-yl)(phenyl)methyl]-3-(3-pyrid-2-yl-1H-indazol-5-yl)urea((S,2S),(R,2R))] | 100 to 500 | 2.8 | –
3 | O=C(Nc1ccc2[nH]nc(-c3ccncc3)c2c1)N[C@@H](c1ccc(Cl)c(Cl)c1)[C@@H]1CCCCN1 [Ex 16, 1-{(S)-(3,4-Dichlorophenyl)[(2S)-piperid-2-yl]methyl}-3-(3-pyrid-4-yl-1H-indazol-5-yl)urea] | 100 to 500 | 7.79 | –
4 | (7-Fluoro-1H-indazol-5-yl)-(S)-(3,4-dichlorophenyl)-(S)-piperid-2-ylmethyl carbamate [Ex 48] | < 100 | – | IC50 [3]: 295 nM; IC50 [4]: 1350 nM; IC50 [5]: 505 nM; IC50 [6]: 1500 nM
5 | CN1CCCCC1C(NC(=O)Nc1ccc2[nH]nc(-c3nc4ccccc4[nH]3)c2c1)c1ccccc1 [Ex 17, 1-[3-(1H-Benzimidazol-2-yl)-1H-indazol-5-yl]-3-[(1-methylpiperid-2-yl)(phenyl)methyl]urea((S,2S),(R,2R))] | < 100 | – | IC50 ([3]; Mus musculus, Fibroblast): 2230 nM; IC50 ([4]; Homo sapiens, LNCaP-Clone-FGC): 670 nM
6 | O=C(Nc1ccc2[nH]ncc2c1)N[C@@H](c1cc(Cl)cc(Cl)c1)[C@@H]1CCCCN1 [Ex 7, 1-{(S)-(3,5-Dichlorophenyl)[(2S)-piperid-2-yl]methyl}-3-(1H-indazol-5-yl)urea] | < 100 | 9.32 | IC50 ([3]; Mus musculus, Fibroblast): 280 nM; IC50 ([4]; Homo sapiens, LNCaP-Clone-FGC): 5000 nM

Second part, led by results:

Row | IC50 (AKT1) [nM] | IC50 [2] [µM] | Compound | also measured
7 | < 100 | 0.93 | CN1CCCCC1C(NC(=O)Nc1ccc2[nH]nc(C#Cc3ccccc3)c2c1)c1ccccc1 [Ex 23, 1-[(1-Methylpiperid-2-yl)(phenyl)methyl]-3-[3-(phenylethynyl)-1H-indazol-5-yl]urea((S,2S),(R,2R))] | IC50 [1]: 500 to 2000 nM
8 | 100 to 500 | 1.5 to 7 | CN1CCCCC1C(NC(=O)Nc1ccc2[nH]nc(CCc3ccccc3)c2c1)c1ccccc1 [Ex 27, 1-[(1-Methylpiperid-2-yl)(phenyl)methyl]-3-[3-(2-phenylethyl)-1H-indazol-5-yl]urea((S,2S),(R,2R))] | –
9 | 100 to 500 | 10 | CN1CCCCC1C(NC(=O)Nc1cc(F)c2[nH]nc(N)c2c1)c1ccccc1 [Ex 20, 1-(3-Amino-7-fluoro-1H-indazol-5-yl)-3-[(1-methylpiperid-2-yl)(phenyl)methyl]urea((S,2S),(R,2R))] | –
